Measured values from ChEMBL document CHEMBL1133037, “The design, synthesis and physical chemical properties of novel human vasopressin V2-receptor antagonists optimized for parenteral delivery” (Bioorg Med Chem Lett, 2000).
≈ marks a conversion by molar mass, not a printed value. Calls of active or inactive are those of the source. No cut-off for these calls is given here.

Tests used:
[1] = Compound was tested for solubility in a model parenteral system consisting of 30% poltethylene glycol 200 (PEG-200)/water; type: ADME; settings: read-out: S
Rattus norvegicus [2] = assay: Ratio of rat urine volume collected from treatment group (10 mg/kg perorally) after 4 hours versus control group was determined; type: functional
Vasopressin V2 receptor = Vasopressin V2 receptor (Homo sapiens, UniProt P30518); assay: Displacement of [3H]AVP from human vasopressin V2-receptor expressed in murine fibroblast cell (LV2) membranes; type: cell-based
[3] = Compound was tested for solubility in a model parenteral system consisting of 30% poltethylene glycol 200 (PEG-200)/water (*, mixture of amophorus and crystalline material); type: ADME; settings: read-out: S
Rattus norvegicus [4] = assay: Ratio of rat urine volume collected from treatment group (3 mg/kg perorally) after 4 hours versus control group was determined; type: functional
Rattus norvegicus [5] = assay: Ratio of rat urine volume collected from treatment group (1 mg/kg perorally) after 4 hours versus control group was determined; type: functional
Rattus norvegicus [6] = assay: Ratio of urine volume collected from treatment group (10 mg/kg perorally) after 4 hours versus control group was determined; No effect; type: functional, organism-based

Sequence of Vasopressin V2 receptor (P30518 whole entry): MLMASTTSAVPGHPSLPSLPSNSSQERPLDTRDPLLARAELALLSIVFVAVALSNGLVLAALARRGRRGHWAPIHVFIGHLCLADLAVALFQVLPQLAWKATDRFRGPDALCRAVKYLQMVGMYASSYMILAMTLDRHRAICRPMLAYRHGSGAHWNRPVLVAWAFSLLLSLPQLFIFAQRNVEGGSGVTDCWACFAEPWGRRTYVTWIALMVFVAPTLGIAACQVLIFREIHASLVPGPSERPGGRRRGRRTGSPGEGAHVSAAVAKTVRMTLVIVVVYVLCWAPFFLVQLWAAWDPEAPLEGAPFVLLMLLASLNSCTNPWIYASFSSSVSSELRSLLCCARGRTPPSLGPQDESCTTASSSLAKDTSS

CN1CCN(C(=O)c2ccc3n2Cc2ccccc2N(C(=O)c2ccc(NC(=O)c4ccccc4-c4ccccc4)cc2Cl)C3)CC1.O=C(O)CC(O)(CC(=O)O)C(=O)O
solubility [1]: 1700 µg/mL

CN(C)CCN(C)Cc1ccc2n1Cc1ccccc1N(C(=O)c1ccc(NC(=O)c3ccccc3-c3ccccc3)cc1Cl)C2
Ratio (Rattus norvegicus [2]): 4.2
IC50 (Vasopressin V2 receptor): 2.6 nM

CN(C)Cc1ccc2n1Cc1ccccc1N(C(=O)c1ccc(NC(=O)c3ccccc3-c3ccccc3)cc1Cl)C2
solubility [3]: 720 µg/mL (≈ 1250 µM)
Ratio (Rattus norvegicus [4]): 5.6
Ratio (Rattus norvegicus [5]): 2.3
Ratio (Rattus norvegicus [2]): 6.6
IC50 (Vasopressin V2 receptor): 7.5 nM

Cc1ccc(F)cc1C(=O)Nc1ccc(C(=O)N2Cc3ccc(CN(C)C)n3Cc3ccccc32)c(Cl)c1
Ratio (Rattus norvegicus [4]): 1.4
Ratio (Rattus norvegicus [5]): 1.4

COc1cc(NC(=O)c2ccccc2-c2ccccc2)ccc1C(=O)N1Cc2ccc(CN3CCN(C)CC3)n2Cc2ccccc21
solubility [1]: 300 µg/mL (≈ 479 µM)
Ratio (Rattus norvegicus [2]): 7.8
IC50 (Vasopressin V2 receptor): 7 nM

CN1CCN(Cc2ccc3n2Cc2ccccc2N(C(=O)c2ccc(NC(=O)c4ccccc4-c4ccccc4)cc2Cl)C3)CC1
Ratio (Rattus norvegicus [2]): 3.75
IC50 (Vasopressin V2 receptor): 1.3 nM

CN(C)C1CCN(Cc2ccc3n2Cc2ccccc2N(C(=O)c2ccc(NC(=O)c4ccccc4-c4ccccc4)cc2Cl)C3)CC1
Ratio (Rattus norvegicus [2]): 2.3
IC50 (Vasopressin V2 receptor): 2 nM

Cc1ccc(F)cc1C(=O)Nc1ccc(C(=O)N2Cc3cccn3Cc3ccccc32)c(Cl)c1 [LIXIVAPTAN]
Ratio (Rattus norvegicus [2]): 7.4

CN(C)C1CCN(C(=O)c2ccc3n2Cc2ccccc2N(C(=O)c2ccc(NC(=O)c4ccccc4-c4ccccc4)cc2Cl)C3)CC1
IC50 (Vasopressin V2 receptor): 8.8 nM

O=C(Nc1ccc(C(=O)N2Cc3ccc(CN4CCC(N5CCCCC5)CC4)n3Cc3ccccc32)c(Cl)c1)c1ccccc1-c1ccccc1
Ratio (Rattus norvegicus [2]): 1.5
IC50 (Vasopressin V2 receptor): 2.1 nM

CN(C)Cc1ccc2n1Cc1ccccc1N(C(=O)c1ccc(NC(=O)c3ccccc3-c3ccccc3)cc1O)C2
solubility [3]: 1900 µg/mL (≈ 3410 µM)
Ratio (Rattus norvegicus [2]): 3.8
IC50 (Vasopressin V2 receptor): 14.8 nM

Cc1ccc(F)cc1C(=O)Nc1ccc(C(=O)N2Cc3ccc(C(=O)O)n3Cc3ccccc32)c(Cl)c1
Ratio (Rattus norvegicus [6]): inactive

CN1CCN(C2CCN(C(=O)c3ccc4n3Cc3ccccc3N(C(=O)c3ccc(NC(=O)c5ccccc5-c5ccccc5)cc3Cl)C4)CC2)CC1.Cl
Ratio (Rattus norvegicus [2]): 2.7

COc1cc(C(=O)N2Cc3ccc(CN(C)C)n3Cc3ccccc32)ccc1NC(=O)c1ccccc1-c1ccccc1
solubility [1]: 2200 µg/mL (≈ 3850 µM)
Ratio (Rattus norvegicus [2]): 5
IC50 (Vasopressin V2 receptor): 5.2 nM
